Data as given in US20100261658A1, “PEPTIDE FOR ACTIVATING AQUAPORIN SYNTHESIS” (priority 2007, published 2010).
Peptide text beside a SMILES is read from it.

System: aquaporin 3
Assay: Expression of aquaporin 3 by immunofluorescence in samples of skin ex vivo
Assay type: cell-based, human
Details: 1% solution of a mother solution at 50 ppm applied topically, 24 hours or 48 hours; in particular upper layers of the epidermis; vs non-treated control
Procedure: The aim of this study is to determine the influence of the peptide SEQ ID no 5 on the expression of aquaporin 3 in samples of skin ex vivo.
Protocol: Samples of human skin are cultured at the air/liquid interface. A 1% solution of a mother solution at 50 ppm of peptide SEQ ID no 4 is applied topically, then the samples are incubated for 24 hours or 48 hours.
These skin samples are then fixed with formaldehyde then enclosed in paraffin. Sections of 2 to 3 μm are then realized. The immunolabeling is carried out after different stages of washing and incubation of these sections. The immunolabeling is carried out by means of a specific polyclonal antibody of aquaporin 3 (anti-aquaporin 3 (C-18): goat polyclonal, sc-9885, Santa Cruz, dilution 1/100th), then a secondary antibody, coupled to a fluorescent marker (alexa-fluor 488 donkey anti-goat Ig G, Molecular Probes, dilution 1/1000th). The skin sections are then examined by epifluorescence microscope (Nikon Eclipse E600 microscope).

C[C@H](NC(=O)[C@@H]1CCCN1C(=O)[C@@H](N)CC(N)=O)C(=O)N[C@@H](CCCNC(=N)N)C(=O)O [SEQ ID no 4, Asn-Pro-Ala-Arg] (H-NPAR-OH; N-terminus and C-terminus assumed)
aquaporin 3 immunofluorescence: stronger fluorescence
